One experiment relates to rat aorta. Kind of experiment: Rat aorta ring relaxation (endogenous tetrahydrobiopterin present). The settings on record: normal rings, phenylephrine-contracted. How it is done:
Rings (5 mm long) of rat pulmonary artery and aorta, were supported on a pair of intraluminal wires at 1 gm tension for one hour and then contracted with their EC50 phenylephrine concentration, which for pulmonary artery was 3.6×10^−8 M (derived from preliminary experiments) and for aorta was 11.8×10^−8 M (from the previously published literature). The rings were then relaxed with carbachol (10 μM). If the relaxation to carbachol was >75%, then the tissues were used to generate dose responses by addition of tetrahydrobiopterin (BH4) or the analogues. Stock BH4 was stored at −20° C. and the dilutions were prepared using saline just before adding the drug into the bath. Solutions of analogues were stored at 4° C. Cumulatively increasing concentrations of the analogues were added to the bath and the extent of relaxation was measured when it had stabilised. Another ring from the same rat was treated in parallel with the solvent for the analogue. The solvent used was NH4OH. The results are shown graphically in FIGS. 1 and 2.

The target in experiment [1] is T1, eNOS (Sus scrofa, UniProt Q28969).
T1 construct: endothelial cells that produce eNOS; endogenous in cells; host or cells: primary porcine pulmonary artery endothelial cells
T1 sequence (Q28969 2-1205 limits assumed): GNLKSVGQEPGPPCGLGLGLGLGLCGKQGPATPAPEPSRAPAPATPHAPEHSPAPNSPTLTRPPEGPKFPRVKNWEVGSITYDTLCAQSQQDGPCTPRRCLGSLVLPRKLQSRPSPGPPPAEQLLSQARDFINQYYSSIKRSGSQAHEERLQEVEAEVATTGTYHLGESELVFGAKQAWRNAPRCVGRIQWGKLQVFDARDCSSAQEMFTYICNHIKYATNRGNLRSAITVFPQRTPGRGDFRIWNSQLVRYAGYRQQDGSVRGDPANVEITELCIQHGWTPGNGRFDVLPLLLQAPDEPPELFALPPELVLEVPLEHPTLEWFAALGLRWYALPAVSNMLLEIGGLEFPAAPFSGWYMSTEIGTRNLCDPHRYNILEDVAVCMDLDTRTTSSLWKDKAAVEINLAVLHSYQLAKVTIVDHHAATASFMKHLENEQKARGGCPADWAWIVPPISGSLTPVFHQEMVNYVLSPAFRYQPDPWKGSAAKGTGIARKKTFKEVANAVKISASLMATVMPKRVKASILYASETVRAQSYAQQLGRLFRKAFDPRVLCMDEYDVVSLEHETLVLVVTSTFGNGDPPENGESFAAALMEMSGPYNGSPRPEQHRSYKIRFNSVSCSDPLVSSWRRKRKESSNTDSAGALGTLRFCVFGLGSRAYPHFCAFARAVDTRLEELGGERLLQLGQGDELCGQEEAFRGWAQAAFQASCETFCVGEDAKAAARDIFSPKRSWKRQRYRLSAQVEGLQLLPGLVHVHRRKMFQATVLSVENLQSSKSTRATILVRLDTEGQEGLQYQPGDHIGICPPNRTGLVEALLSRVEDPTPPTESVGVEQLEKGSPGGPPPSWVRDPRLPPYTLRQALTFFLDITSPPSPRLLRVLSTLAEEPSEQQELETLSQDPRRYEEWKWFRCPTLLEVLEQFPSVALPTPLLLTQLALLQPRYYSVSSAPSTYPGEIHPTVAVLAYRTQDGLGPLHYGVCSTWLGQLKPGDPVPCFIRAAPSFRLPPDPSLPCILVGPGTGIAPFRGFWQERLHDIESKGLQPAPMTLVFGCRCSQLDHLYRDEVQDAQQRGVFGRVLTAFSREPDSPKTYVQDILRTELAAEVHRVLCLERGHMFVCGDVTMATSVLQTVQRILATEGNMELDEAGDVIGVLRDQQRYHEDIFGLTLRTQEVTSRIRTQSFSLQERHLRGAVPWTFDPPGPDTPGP
Kind of experiment: Endothelial cell assay, nitric oxide (NO2+NO3) production. Format: cell-based, porcine. The settings on record: 30 μM in DMSO, seven days, DAHP-depleted endothelial cells. As to the method:
The arterial assay is sensitive but slow to perform, and therefore a wider range of compounds was investigated in whole cell preparations. Tests have been carried out using endothelial cells that produce eNOS and stimulated macrophages that produce iNOS. Endothelial cells were isolated from porcine pulmonary artery and grown to confluency in T75 flasks. Subsequently, the cells were seeded into 6-well plates. At confluency, the medium (1 ml/well) was changed and the relevant treatment introduced to all wells in each plate (one treatment/plate). The cells were incubated for a further 7-day period and the experiment was terminated. The media from the wells of respective plates was combined (˜6 mls) and evaporated to approximately 500 μl (˜10-fold). A 50 μl aliquot was removed and any NO3 was converted to NO2 using the NO3 conversion method (Calbiochem Cat No 482702). These treated samples were then assayed using the Greiss reaction as described above giving the content of the combination of (NO2+NO3). WSG1002, as a representative compound, was incubated with a preparation of endothelial cells over seven days in order to accumulate sufficient nitric oxide for assay as described above. Controls included vehicle (0.5% DMSO) and L-NAME (an established NOS inhibitor). WSG1002 caused a doubling of nitric oxide compared with vehicle control.

The subject of experiment [2] is eNOS. Kind of experiment: eNOS immunostaining in endothelium of small pulmonary arteries of treated rats. In kind it is in vivo, rat. The settings on record: 14.1 mg/kg/day s.c. As to the method:
Rats were maintained in a chamber containing atmospheric air at 550 mbar for 14 days. […] A group of normotensive and a group of pulmonary hypertensive rats received daily subcutaneous injections of WSG1002 in a dose of 14.1 mg/kg/day during the time that they were in the hypoxic chamber. Other groups of normotensive and pulmonary hypertensive rats had no drugs and are used as control comparison groups. These studies used lungs from the four groups of rats (1) pulmonary hypertensive and treated with WSG1002, (2) normotensive and treated with WSG1002, (3) pulmonary hypertensive and not treated with WSG1002 (4) normotensive and not treated with WSG1002. The rat lungs were fixed with 4% formaldehyde, wax embedded, and 3 μm thick sections were cut. The sections were mounted on silanated slides, rehydrated and treated with 0.3% H2O2 to block endogenous peroxidase activity. Antigens were unmasked by treatment in a microwave oven. […] In the endothelium, the intensity of staining was quantified on a scale of 0-3, where 0=no staining or the same as the negative control, 1=faint staining or staining in a few target cells, 2=moderate staining in most target cells, 3=the maximum staining observed with that antibody in the positive control slides.

Molecules are shown by their SMILES. Entries after “also recorded” stand apart in the source; their conditions may differ.

Regarding `CC(=O)C1=Nc2c(nc(N)[nH]c2=O)NC1(C)C` [wsg1002, 6-Acetyl-2-amino-7,7-dimethyl-7,8-dihydro-3H-pteridin-4-one], the “relaxation of rat aorta rings” value in the experiment on rat aorta is listed as “no action; also recorded: no effect”. Also, the “nitric oxide production compared with vehicle control” value on eNOS [1] is listed as “doubling”. Besides, the “eNOS staining in small pulmonary artery endothelium” value in the experiment with eNOS [2] (normotensive rats) is listed as “increased staining for eNOS”; with eNOS [2] (pulmonary hypertensive rats vs treated normotensive) it was “no further increase”.

The record behind these values is patent US20060194800A1, “Pteridine derivatives as nitric oxide synthase activators” (University of Strathclyde, priority 2005, published 2006).
